For test [1], the target named is Histamine H3 receptor (Homo sapiens, UniProt Q9Y5N1). Put plainly: Binding affinity for human histamine H3 receptor on human colon cells. The class given is cell-based.
Test [2] deals with Histamine H3 receptor (Rattus norvegicus, UniProt Q9QYN8). Put plainly: Binding affinity for rat histamine H3 receptor on rat cortical cells.

The record followed here is ChEMBL document CHEMBL1147425, “Structure-activity relationships of non-imidazole H(3) receptor ligands. Part 3: 5-Substituted 3-phenyl-1,2,4-oxadiazoles as potent antagonists” (Bioorg Med Chem Lett, 2004).

As usually defined, the Ki is a dissociation constant, usually derived from enzyme kinetics or from competition with a known ligand. Read a low Ki as tighter binding.

Histamine H3 receptor (Rattus norvegicus, UniProt Q9QYN8), sequence (Q9QYN8 whole entry): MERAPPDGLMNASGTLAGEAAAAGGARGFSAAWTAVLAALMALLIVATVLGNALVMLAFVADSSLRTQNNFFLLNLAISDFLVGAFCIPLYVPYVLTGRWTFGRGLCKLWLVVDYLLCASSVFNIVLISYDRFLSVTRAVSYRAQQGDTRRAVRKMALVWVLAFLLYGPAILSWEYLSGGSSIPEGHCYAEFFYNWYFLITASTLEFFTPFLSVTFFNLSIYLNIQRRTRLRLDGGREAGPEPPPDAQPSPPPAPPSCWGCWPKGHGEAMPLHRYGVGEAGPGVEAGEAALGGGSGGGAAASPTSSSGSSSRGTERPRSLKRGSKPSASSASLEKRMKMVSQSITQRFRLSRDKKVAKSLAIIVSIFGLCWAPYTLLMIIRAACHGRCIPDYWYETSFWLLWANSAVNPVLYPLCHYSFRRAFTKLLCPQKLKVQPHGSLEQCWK
Histamine H3 receptor (Homo sapiens, UniProt Q9Y5N1), sequence (Q9Y5N1 whole entry): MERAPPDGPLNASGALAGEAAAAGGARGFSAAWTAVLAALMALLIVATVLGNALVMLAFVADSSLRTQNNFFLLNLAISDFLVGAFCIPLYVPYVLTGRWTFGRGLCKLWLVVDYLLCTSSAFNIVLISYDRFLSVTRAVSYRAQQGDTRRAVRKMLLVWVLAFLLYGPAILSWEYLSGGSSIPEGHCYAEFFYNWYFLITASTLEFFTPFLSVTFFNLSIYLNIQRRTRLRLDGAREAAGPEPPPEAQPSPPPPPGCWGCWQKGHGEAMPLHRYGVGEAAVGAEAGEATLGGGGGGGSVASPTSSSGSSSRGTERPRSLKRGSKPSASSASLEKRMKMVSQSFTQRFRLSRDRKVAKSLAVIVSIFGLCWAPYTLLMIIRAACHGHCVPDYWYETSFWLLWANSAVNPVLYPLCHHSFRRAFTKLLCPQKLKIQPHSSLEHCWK

For `C[C@@H](NC(=O)c1ccco1)C(=O)N1CCCN(CCCOc2ccc(-c3noc(CC4CCCCC4)n3)c(F)c2)CC1`, the Ki on Histamine H3 receptor [1] was determined as 21 nM; at Histamine H3 receptor [2], 2.6 nM.
On the same counts, the results for `C[C@@H](NC(=O)c1ccco1)C(=O)N1CCN(CCCOc2ccc(-c3noc(C4CC4)n3)c(F)c2)CC1` are 64 nM and 1.1 nM.
The corresponding values for `CC(C)c1nc(-c2ccc(OCCCN3CCCN(C(=O)[C@@H](C)NC(=O)c4ccco4)CC3)cc2F)no1` are 46 nM and 2.1 nM.
With `C[C@@H](NC(=O)c1ccno1)C(=O)N1CCN(CCCOc2ccc(-c3noc(-c4ccccc4)n3)c(F)c2)CC1`, the Ki at Histamine H3 receptor [1] worked out at 86 nM. This counts as double-digit nanomolar.
Regarding `C[C@@H](NC(=O)c1ccccc1)C(=O)N1CCN(CCCOc2ccc(-c3noc(-c4ccccc4)n3)c(F)c2)CC1`, the Ki at Histamine H3 receptor [1] turned out to be 39 nM; on Histamine H3 receptor [2], 4.6 nM.
The corresponding values for `COc1ccccc1C(=O)N[C@H](C)C(=O)N1CCN(CCCOc2ccc(-c3noc(CC4CCCC4)n3)c(F)c2)CC1` are 54 nM and 7 nM.
The corresponding values for `CC(C)C(NC(=O)OC(C)(C)C)c1nc(-c2ccc(OCCCN3CCCN(C(=O)[C@@H](C)NC(=O)c4ccco4)CC3)cc2F)no1` (stereo partly drawn) are 170 nM and 9.8 nM.
The corresponding values for `C[C@@H](NC(=O)c1ccco1)C(=O)N1CCCN(CCCOc2ccc(-c3noc([C@@H](C)NC(=O)OC(C)(C)C)n3)c(F)c2)CC1` are 520 nM and 28 nM.
Consider `CCC(=O)N[C@H](C)C(=O)N1CCN(CCCOc2ccc(-c3noc(CC4CCCC4)n3)c(F)c2)CC1`, for which the Ki on Histamine H3 receptor [1] worked out at 170 nM; on Histamine H3 receptor [2], 7.2 nM.
On to `C[C@@H](NC(=O)c1ccco1)C(=O)N1CCCN(CCCOc2ccc(-c3noc(-c4cccs4)n3)c(F)c2)CC1`, for which the Ki was determined as 160 nM on Histamine H3 receptor [1] and 6.2 nM at Histamine H3 receptor [2].
With `Cc1ccc(C(=O)N[C@H](C)C(=O)N2CCCN(CCCOc3ccc(-c4noc(CC5CCCC5)n4)c(F)c3)CC2)cc1`, the inhibitory constant (Ki) stood at 17 nM at Histamine H3 receptor [1] and 1.4 nM at Histamine H3 receptor [2].
The corresponding values for `C[C@@H](NC(=O)C1CCCC1)C(=O)N1CCN(CCCOc2ccc(-c3noc(-c4ccccc4)n3)c(F)c2)CC1` are 70 nM and 7 nM.
The corresponding values for `Cc1cccc(C(=O)N[C@H](C)C(=O)N2CCN(CCCOc3ccc(-c4noc(CC5CCCC5)n4)c(F)c3)CC2)c1` are 31 nM and 4.7 nM.
As for `C[C@@H](NC(=O)c1ccc(C#N)cc1)C(=O)N1CCCN(CCCOc2ccc(-c3noc(CC4CCCC4)n3)c(F)c2)CC1`, the Ki on Histamine H3 receptor [1] was 12 nM.
For `C[C@@H](NC(=O)C(C)(C)C)C(=O)N1CCCN(CCCOc2ccc(-c3noc(CC4CCCC4)n3)c(F)c2)CC1`, the inhibition constant (Ki) at Histamine H3 receptor [1] amounted to 36 nM; at Histamine H3 receptor [2] it was 2 nM.
On Histamine H3 receptor [1], `C[C@@H](NC(=O)[C@@H]1CCCO1)C(=O)N1CCN(CCCOc2ccc(-c3noc(-c4ccccc4)n3)c(F)c2)CC1` showed a Ki of 80 nM.
On to `C[C@@H](NC(=O)c1ccc(Cl)c(Cl)c1)C(=O)N1CCCN(CCCOc2ccc(-c3noc(CC4CCCC4)n3)c(F)c2)CC1`, for which the figures for the Ki at Histamine H3 receptor [1] and on Histamine H3 receptor [2] were 140 nM and 31 nM, respectively.
In the case of `Cc1ccc(C)c(C(=O)N[C@H](C)C(=O)N2CCN(CCCOc3ccc(-c4noc(CC5CCCC5)n4)c(F)c3)CC2)c1`, the Ki came to 75 nM at Histamine H3 receptor [1] and 6.6 nM on Histamine H3 receptor [2].
On the same counts, the results for `C[C@@H](NC(=O)c1ccco1)C(=O)N1CCCN(CCCOc2ccc(-c3noc(C4CC4)n3)c(F)c2)CC1` are 42 nM and 1.5 nM.
The corresponding values for `C[C@@H](NC(=O)c1ccco1)C(=O)N1CCCN(CCCOc2ccc(-c3noc(C4CCCC4)n3)c(F)c2)CC1` are 15 nM and 0.86 nM.
The compound `C[C@@H](NC(=O)c1cccnc1)C(=O)N1CCN(CCCOc2ccc(-c3noc(-c4ccccc4)n3)c(F)c2)CC1` returned a Ki at Histamine H3 receptor [1] of 27 nM.
Turning to `CCC(CC)c1nc(-c2ccc(OCCCN3CCCN(C(=O)[C@@H](C)NC(=O)c4ccco4)CC3)cc2F)no1`, the Ki at Histamine H3 receptor [1] is 34 nM; on Histamine H3 receptor [2], 2.3 nM.
The corresponding values for `C[C@@H](NC(=O)c1ccco1)C(=O)N1CCCN(CCCOc2ccc(-c3noc(C4CCCCC4)n3)c(F)c2)CC1` are 19 nM and 2.4 nM.
On to `CCc1nc(-c2ccc(OCCCN3CCCN(C(=O)[C@@H](C)NC(=O)c4ccco4)CC3)cc2F)no1`, for which the Ki on Histamine H3 receptor [1] worked out at 120 nM. This lies in the sub-micromolar range.
Same read-out and setting: the value for `C[C@@H](NC(=O)CCN1CCOCC1)C(=O)N1CCN(CCCOc2ccc(-c3noc(-c4ccccc4)n3)c(F)c2)CC1` was 88 nM.
Turning to `CC(C)C(=O)N[C@H](C)C(=O)N1CCN(CCCOc2ccc(-c3noc(-c4ccccc4)n3)c(F)c2)CC1`, the Ki on Histamine H3 receptor [1] worked out at 110 nM; at Histamine H3 receptor [2], 14 nM.
Consider `CC(C)CC(=O)N[C@H](C)C(=O)N1CCN(CCCOc2ccc(-c3noc(-c4ccccc4)n3)c(F)c2)CC1`, for which the inhibition constant Ki at Histamine H3 receptor [1] was found to be 56 nM.
Regarding `CCCCC(=O)N[C@H](C)C(=O)N1CCN(CCCOc2ccc(-c3noc(CC4CCCC4)n3)c(F)c2)CC1`, the Ki on Histamine H3 receptor [1] turned out to be 79 nM; at Histamine H3 receptor [2] it was 2.6 nM.
On the same counts, the results for `C[C@@H](NC(=O)c1ccco1)C(=O)N1CCCN(CCCOc2ccc(-c3noc(-c4ccsc4)n3)c(F)c2)CC1` are 49 nM and 2.6 nM.
On the same counts, the results for `CC(=O)N[C@H](C)C(=O)N1CCN(CCCOc2ccc(-c3noc(CC4CCCC4)n3)c(F)c2)CC1` are 200 nM and 8.9 nM.
The corresponding values for `CCCCC(=O)N[C@H](C)C(=O)N1CCCN(CCCOc2ccc(-c3noc(CC4CCCC4)n3)c(F)c2)CC1` are 18 nM and 1.4 nM.
In the case of `C[C@@H](NC(=O)CCN1CCOCC1)C(=O)N1CCN(CCCOc2ccc(-c3noc(CC4CCCC4)n3)c(F)c2)CC1`, the Ki at Histamine H3 receptor [1] worked out at 37 nM; at Histamine H3 receptor [2] it was 1.1 nM.
In turn, `C[C@@H](N)C(=O)N1CCN(CCCOc2ccc(C(=O)C3CC3)cc2)CC1` came in with a Ki on Histamine H3 receptor [1] of 760 nM.
For `C[C@@H](NC(=O)c1ccc(Cl)cc1)C(=O)N1CCCN(CCCOc2ccc(-c3noc(CC4CCCC4)n3)c(F)c2)CC1`, the Ki is 31 nM on Histamine H3 receptor [1] and 5.2 nM at Histamine H3 receptor [2].
Regarding `C[C@@H](NC(=O)c1ccc(F)cc1)C(=O)N1CCN(CCCOc2ccc(-c3noc(CC4CCCC4)n3)c(F)c2)CC1`, the Ki on Histamine H3 receptor [1] stood at 17 nM; on Histamine H3 receptor [2], 1.5 nM.
Regarding `C[C@@H](NC(=O)C1CCCCC1)C(=O)N1CCN(CCCOc2ccc(-c3noc(-c4ccccc4)n3)c(F)c2)CC1`, the Ki was determined as 49 nM at Histamine H3 receptor [1] and 6.9 nM on Histamine H3 receptor [2].
The corresponding values for `C[C@@H](NC(=O)c1ccc(Cl)c(Cl)c1)C(=O)N1CCN(CCCOc2ccc(-c3noc(CC4CCCC4)n3)c(F)c2)CC1` are 15 nM and 1.8 nM.
On the same counts, the results for `C[C@@H](NC(=O)[C@H]1CCCO1)C(=O)N1CCN(CCCOc2ccc(-c3noc(-c4ccccc4)n3)c(F)c2)CC1` are 92 nM and 4.2 nM.
On the same counts, the results for `CC(=O)N[C@H](C)C(=O)N1CCCN(CCCOc2ccc(-c3noc(CC4CCCC4)n3)c(F)c2)CC1` are 40 nM and 2 nM.
Consider `C[C@@H](NC(=O)c1ccsc1)C(=O)N1CCN(CCCOc2ccc(-c3noc(-c4ccccc4)n3)c(F)c2)CC1`, for which the Ki on Histamine H3 receptor [1] turned out to be 28 nM; at Histamine H3 receptor [2] it was 4.2 nM.
The corresponding values for `C[C@@H](NC(=O)c1ccc(O)cc1)C(=O)N1CCN(CCCOc2ccc(-c3noc(CC4CCCC4)n3)c(F)c2)CC1` are 16 nM and 1.3 nM.
The corresponding values for `C[C@@H](NC(=O)c1cccc(C#N)c1)C(=O)N1CCN(CCCOc2ccc(-c3noc(CC4CCCC4)n3)c(F)c2)CC1` are 35 nM and 1.5 nM.
For the compound `C[C@@H](NC(=O)c1ccc(C#N)cc1)C(=O)N1CCN(CCCOc2ccc(-c3noc(-c4ccccc4)n3)c(F)c2)CC1`, the figures for the Ki at Histamine H3 receptor [1] and at Histamine H3 receptor [2] were 20 nM and 2.6 nM, respectively.
The corresponding values for `C[C@@H](NC(=O)c1cnccn1)C(=O)N1CCN(CCCOc2ccc(-c3noc(-c4ccccc4)n3)c(F)c2)CC1` are 29 nM and 1.7 nM.
`COc1ccc(C(=O)N[C@H](C)C(=O)N2CCCN(CCCOc3ccc(-c4noc(CC5CCCC5)n4)c(F)c3)CC2)cc1`: the Ki came out at 9.8 nM at Histamine H3 receptor [1] and 1.1 nM on Histamine H3 receptor [2].
Take `C[C@@H](NC(=O)c1ccccc1Cl)C(=O)N1CCN(CCCOc2ccc(-c3noc(CC4CCCC4)n3)c(F)c2)CC1`: on Histamine H3 receptor [1], the inhibition constant Ki stood at 8.6 nM. This counts as single-digit nanomolar.
Take `C[C@@H](NC(=O)c1cccc(C(F)(F)F)c1)C(=O)N1CCN(CCCOc2ccc(-c3noc(CC4CCCC4)n3)c(F)c2)CC1`: the inhibition constant Ki at Histamine H3 receptor [1] is 87 nM; on Histamine H3 receptor [2] it was 10 nM.
On the same counts, the results for `COc1ccc(C(=O)N[C@H](C)C(=O)N2CCN(CCCOc3ccc(-c4noc(CC5CCCC5)n4)c(F)c3)CC2)cc1OC` are 24 nM and 2.5 nM.
`CC(C)C(=O)N[C@H](C)C(=O)N1CCCN(CCCOc2ccc(-c3noc(CC4CCCC4)n3)c(F)c2)CC1`: the figures for the Ki at Histamine H3 receptor [1] and at Histamine H3 receptor [2] were 14 nM and 1.3 nM, respectively.
The corresponding values for `C[C@@H](NC(=O)c1ccc(F)cc1)C(=O)N1CCCN(CCCOc2ccc(-c3noc(CC4CCCC4)n3)c(F)c2)CC1` are 14 nM and 1.2 nM.
On the same counts, the results for `C[C@@H](NC(=O)c1ccco1)C(=O)N1CCCN(CCCOc2ccc(-c3noc(-c4cccnc4)n3)c(F)c2)CC1` are 190 nM and 6.9 nM.
On the same counts, the results for `C[C@@H](NC(=O)CC(C)(C)C)C(=O)N1CCCN(CCCOc2ccc(-c3noc(CC4CCCC4)n3)c(F)c2)CC1` are 74 nM and 4.9 nM.
As to `COc1ccc(C(=O)N[C@H](C)C(=O)N2CCN(CCCOc3ccc(-c4noc(CC5CCCC5)n4)c(F)c3)CC2)cc1`, the Ki at Histamine H3 receptor [1] was 11 nM.
Turning to `C[C@@H](NC(=O)c1ccco1)C(=O)N1CCCN(CCCOc2ccc(-c3noc(-c4ccco4)n3)c(F)c2)CC1`, the Ki came out at 170 nM at Histamine H3 receptor [1] and 5 nM on Histamine H3 receptor [2].
`C[C@@H](NC(=O)c1cccs1)C(=O)N1CCN(CCCOc2ccc(-c3noc(-c4ccccc4)n3)c(F)c2)CC1`: the Ki at Histamine H3 receptor [1] was determined as 40 nM.
For `C[C@@H](NC(=O)c1ccco1)C(=O)N1CCCN(CCCOc2ccc(-c3noc(CCc4ccccc4)n3)c(F)c2)CC1`, the Ki on Histamine H3 receptor [1] came out at 7.5 nM; on Histamine H3 receptor [2], 0.94 nM.
For the compound `CCCCCC(=O)c1ccc(OCCCN2CCN(C(=O)OCC)CC2)cc1`, the affinity at Histamine H3 receptor [2] corresponds to a Ki of 1 nM.
Compound `C[C@@H](NC(=O)c1ccco1)C(=O)N1CCN(CCCOc2ccc(-c3noc(-c4ccccc4)n3)c(F)c2)CC1` (stereo in doubt; 13p) displayed a Ki at Histamine H3 receptor [1] of 43 nM. That is a double-digit nanomolar value.
